Consider 30 compounds from the RepoRT retention time repository (doi:10.1016/j.foodchem.2012.08.062).

A short description of this series: RP, Waters ACQUITY UPLC BEH Shield RP18, 150 × 3 mm, 1.7 µm, 40 °C, 0.5 mL/min, estimated dead time 1.4 min; A: water + 0.1% formic acid; B: acetonitrile + 0.1% formic acid; gradient (min/%B) 0/0 9.91/26 18.51/65 18.76/100 20.76/100. Conditions: stereoisomer not certain.
With `O=C(O)CCc1ccc(O)c(O)c1`, the LC retention time is 8.65 min. With `COc1cc(-c2oc3cc(O)cc(O)c3c(=O)c2O)ccc1O` the figure was 18.1 min; with `O=C(CCc1ccc(O)cc1)c1c(O)cc(O)cc1O`, 17 min. The value for `O=C1CC(c2ccc(O)cc2)Oc2cc(O)cc(O)c21` (stereo not given) was 17.1 min; that for `COc1cc(C=CC(=O)O)cc(OC)c1O` was 12.7 min. Take `O=c1cc(-c2ccc(O)cc2)oc2cc(OC3OC(CO)C(O)C(O)C3O)cc(O)c12` (stereo not given): the LC retention time was 13.7 min. With `O=C(O)c1ccc(O)c(O)c1` the figure was 7.05 min. With `Oc1cc(O)c2c(c1)OC(c1ccc(O)c(O)c1)C(O)C2c1c(O)cc(O)c2c1OC(c1ccc(O)c(O)c1)C(O)C2` (stereo not given), the LC retention time was 10.2 min.

Regarding `O=c1cc(-c2ccc(O)c(O)c2)oc2cc(O)cc(O)c12`, the LC retention time was 16.6 min. The value for `O=C(O)Cc1ccc(O)cc1` was 8.61 min; that for `COc1cc(C=CC(=O)O)ccc1O` was 12.8 min.

Take `O=c1c(O)c(-c2ccc(O)c(O)c2)oc2cc(O)cc(O)c12`: the LC retention time was 16.7 min. The value for `O=c1c(O)c(-c2ccccc2)oc2cc(O)cc(O)c12` was 20.3 min; that for `O=C(O)c1ccccc1O` was 14.5 min; that for `O=C1c2c(O)cc(O)cc2OC(c2ccc(O)cc2)C1O` (stereo not given) was 14.8 min. With `O=C(O)C=Cc1ccc(O)cc1`, the LC retention time is 12.7 min. With `COc1cc(CCC(=O)O)ccc1O` the figure was 11.3 min. Consider `CC1OC(OCC2OC(Oc3c(-c4ccc(O)c(O)c4)oc4cc(O)cc(O)c4c3=O)C(O)C(O)C2O)C(O)C(O)C1O` (stereo not given), for which the LC retention time was 12.6 min. The value for `CC1OC(OC2C(Oc3cc(O)c4c(c3)OC(c3ccc(O)cc3)CC4=O)OC(CO)C(O)C2O)C(O)C(O)C1O` (stereo not given) was 13 min; that for `O=C1c2c(O)cc(O)cc2OC(c2ccc(O)c(O)c2)C1O` (stereo not given) was 13.3 min. The value for `CCCOC(=O)c1cc(O)c(O)c(O)c1` was 13.8 min. For the compound `CC1OC(Oc2c(-c3ccc(O)c(O)c3)oc3cc(O)cc(O)c3c2=O)C(O)C(O)C1O` (stereo not given), the LC retention time was 14 min. With `O=c1c(O)c(-c2ccc(O)cc2)oc2cc(O)cc(O)c12` the figure was 18.4 min. With `O=c1cc(-c2ccc(O)cc2)oc2cc(O)cc(O)c12` the figure was 18 min; with `O=c1c(OC2OC(CO)C(O)C2O)c(-c2ccc(O)c(O)c2)oc2cc(O)cc(O)c12` (stereo not given), 13.7 min.

On to `O=c1c(OC2OC(CO)C(O)C(O)C2O)c(-c2ccc(O)cc2)oc2cc(O)cc(O)c12` (stereo not given), for which the LC retention time is 13.8 min.

Take `O=C(CCc1ccc(O)cc1)c1c(O)cc(O)cc1OC1OC(CO)C(O)C(O)C1O` (stereo not given): the LC retention time is 13.7 min. With `O=C(O)c1cc(O)c(O)c(O)c1` the figure was 4.79 min; with `O=c1cc(-c2ccc(O)c(O)c2)oc2cc(OC3OC(CO)C(O)C(O)C3O)cc(O)c12` (stereo not given), 12.7 min. Take `O=C(C=Cc1ccc(O)c(O)c1)OC1CC(O)(C(=O)O)CC(O)C1O` (stereo not given): the LC retention time is 8.3 min.
